Experimental data reported in patent publication US20250074901A1, “NOVEL HETEROARYL COMPOUNDS” (ICAGEN, LLC, priority 2021, published 2025).

Target: T1, Kv7.2 (Homo sapiens, UniProt O43526)
T1 construct: expressed in transfected cells
Test: Activation of Kv7.2 (in vitro assay, concentration response curve)
Format: cell-based
Conditions: for Emax: Kv7.2 activation max %; for EC50: activation of Kv7.2
Description: The term “EC50” in this application is defined as: the agonistic effect of a compound can be determined by testing the compound in an in vitro assay as described herein, whereby the effect of the compound is measured across a range of compound concentrations. The resulting data is plotted as a concentration response curve, which typically follows a sigmoidal function, whereby the concentration of the compound is plotted on the x axis and the response (agonistic effect) is plotted on the y axis. The term “EC50” is the “half maximal effective concentration” and denotes the concentration of a particular compound required to obtain 50% of the maximum response (Emax) which is observed for that compound in the given in vitro assay.

SMILES	Emax [%]	EC50 [nM]
O=C(NCc1ccnc(OC(F)F)c1)N[C@@H]1CCOc2ccccc21 [Example 23, 1-[[2-(difluoromethoxy)pyridin-4-yl]methyl]-3-[(4R)-3,4-dihydro-2H-chromen-4-yl]urea]	52	130
CC(NC(=O)NCc1ccnc(OC(F)F)c1)C1CC2CCC1C2 (stereo not shown) [Example 24, 1-[1-(2-bicyclo[2.2.1]heptanyl)ethyl]-3-[[2-(difluoromethoxy)pyridin-4-yl]methyl]urea]	76	20
CC1CCCC(C)C1NC(=O)NCc1ccnc(OC(F)F)c1 (stereo not shown) [Example 25, 1-[[2-(difluoromethoxy)pyridin-4-yl]methyl]-3-(2,6-dimethylcyclohexyl)urea]	75	30
CC(C)(C)CNC(=O)NCc1ccnc(OC(F)F)c1 [Example 29, 1-[[2-(difluoromethoxy)pyridin-4-yl]methyl]-3-(2,2-dimethylpropyl)urea]	63	570
O=C(NCc1ccnc(OC(F)F)c1)NCC12CC(C1)C2 [Example 31, 1-(1-bicyclo[1.1.1]pentanylmethyl)-3-[[2-(difluoromethoxy)pyridin-4-yl]methyl]urea]	57	420
O=C(NCc1ccnc(OC(F)F)c1)NCC12CC(F)(C1)C2 [Example 32, 1-[[2-(difluoromethoxy)pyridin-4-yl]methyl]-3-[(3-fluoro-1-bicyclo[1.1.1]pentanyl)methyl]urea]	42	830
CC1(C)CCC(NC(=O)NCc2ccnc(-n3ccnc3)c2)CC1 [Example 37, 1-(4,4-dimethylcyclohexyl)-3-[(2-imidazol-1-ylpyridin-4-yl)methyl]urea]	59	1310
COC1(CNC(=O)NCc2ccnc(OC(F)F)c2)CCC1 [Example 38, 1-[[2-(difluoromethoxy)pyridin-4-yl]methyl]-3-[(1-methoxycyclobutyl)methyl]urea]	73	3730
CC(C)(F)CNC(=O)NCc1ccnc(OC(F)F)c1 [Example 39, 1-[[2-(difluoromethoxy)pyridin-4-yl]methyl]-3-(2-fluoro-2-methylpropyl)urea]	55	1950
O=C(NCc1ccnc(OC(F)F)c1)NCC1(F)CCC1 [Example 40, 1-[[2-(difluoromethoxy)pyridin-4-yl]methyl]-3-[(1-fluorocyclobutyl)methyl]urea]	58	640
O=C(NCc1ccnc(-n2cnc(C(F)(F)F)c2)c1)NCC1CCC1 [Example 41, 1-(cyclobutylmethyl)-3-[[2-[4-(trifluoromethyl)imidazol-1-yl]pyridin-4-yl]methyl]urea]	40	1130
O=C(NCc1ccnc(OC(F)F)c1)N[C@H]1C[C@H](C(F)(F)F)C1 [Example 42, 1-[[2-(difluoromethoxy)pyridin-4-yl]methyl]-3-[(1r,3r)-3-(trifluoromethyl)cyclobutyl]urea]	58	70
O=C(NCc1ccnc(OCC(F)(F)F)c1)NC1CCCC1 [Example 43, 1-cyclopentyl-3-[[2-(2,2,2-trifluoroethoxy)pyridin-4-yl]methyl]urea]	75	140
CC(C)(C)CC1(NC(=O)NCc2ccnc(OC(F)F)c2)CC1 [Example 44, 1-[[2-(difluoromethoxy)pyridin-4-yl]methyl]-3-[1-(2,2-dimethylpropyl)cyclopropyl]urea]	75	480
O=C(NCc1ccnc(OC(F)F)c1)NC1CCC1 [Example 45, 1-cyclobutyl-3-[[2-(difluoromethoxy)pyridin-4-yl]methyl]urea]	62	1230
O=C(NCc1ccnc(OC(F)F)c1)NCC1CCCC1 [Example 46, 1-(cyclopentylmethyl)-3-[[2-(difluoromethoxy)pyridin-4-yl]methyl]urea]	64	210
O=C(NCc1ccnc(OC(F)F)c1)NC12CC(C1)C2 [Example 47, 1-(1-bicyclo[1.1.1]pentanyl)-3-[[2-(difluoromethoxy)pyridin-4-yl]methyl]urea]	65	1510
O=C(NCc1ccnc(OC(F)F)c1)NC12CCC(F)(CC1)CC2 [Example 48, 1-[[2-(difluoromethoxy)pyridin-4-yl]methyl]-3-(4-fluoro-1-bicyclo[2.2.2]octanyl)urea]	54	160
COC12CC(NC(=O)NCc3ccnc(OC(F)F)c3)(C1)C2 [Example 49, 1-[[2-(difluoromethoxy)pyridin-4-yl]methyl]-3-(3-methoxy-1-bicyclo[1.1.1]pentanyl)urea]	48	1830
O=C(NCc1ccnc(OC(F)F)c1)NC1(C2CCC2)CC1 [Example 50, 1-(1-cyclobutylcyclopropyl)-3-[[2-(difluoromethoxy)pyridin-4-yl]methyl]urea]	56	300
O=C(NCc1ccnc(OCC2CCC2)c1)N[C@H]1C[C@H](C(F)(F)F)C1 [Example 54, 1-[[2-(cyclobutylmethoxy)pyridin-4-yl]methyl]-3-[(1r,3r)-3-(trifluoromethyl)cyclobutyl]urea]	62	150
O=C(NCc1ccnc(OCC2CC2)c1)N[C@H]1C[C@H](C(F)(F)F)C1 [Example 55, 1-[[2-(cyclopropylmethoxy)pyridin-4-yl]methyl]-3-[(1r,3r)-3-(trifluoromethyl)cyclobutyl]urea]	51	300
O=C(NCc1ccnc(OCC(F)F)c1)N[C@H]1C[C@H](C(F)(F)F)C1 [Example 56, 1-[[2-(2,2-difluoroethoxy)pyridin-4-yl]methyl]-3-[(1r,3r)-3-(trifluoromethyl)cyclobutyl]urea]	56	340
CC(F)(F)c1cc(CNC(=O)N[C@H]2C[C@H](C(F)(F)F)C2)ccn1 [Example 57, 1-[[2-(1,1-difluoroethyl)pyridin-4-yl]methyl]-3-[(1r,3r)-3-(trifluoromethyl)cyclobutyl]urea]	60	610
O=C(NCc1ccnc(C(F)(F)F)c1)N[C@H]1C[C@H](C(F)(F)F)C1 [Example 58, 1-[(1r,3r)-3-(trifluoromethyl)cyclobutyl]-3-[[2-(trifluoromethyl)pyridin-4-yl]methyl]urea]	42	340
CCC1CC(NC(=O)NCc2ccnc(OC(F)F)c2)C1 (stereo not shown) [Example 60, 1-[[2-(difluoromethoxy)pyridin-4-yl]methyl]-3-(3-ethylcyclobutyl)urea]	77	140

Other lines, results leading:

Emax [%]	EC50 [nM]	SMILES
43	750	O=C(NCc1ccnc(OC(F)F)c1)NCC1CC(C(F)(F)F)C1 (stereo not shown) [Example 62, 1-[[2-(difluoromethoxy)pyridin-4-yl]methyl]-3-[[3-(trifluoromethyl)cyclobutyl]methyl]urea]
66	250	N#CCOc1cc(CNC(=O)N[C@H]2C[C@H](C(F)(F)F)C2)ccn1 [Example 63, 1-[[2-(cyanomethoxy)pyridin-4-yl]methyl]-3-[(1r,3r)-3-(trifluoromethyl)cyclobutyl]urea]
70	340	O=C(NCc1ccnc(CC(F)(F)F)c1)N[C@H]1C[C@H](C(F)(F)F)C1 [Example 64, 1-[[2-(2,2,2-trifluoroethyl)pyridin-4-yl]methyl]-3-[(1r,3r)-3-(trifluoromethyl)cyclobutyl]urea]
76	450	CC1CC(NC(=O)NCc2ccnc(OC(F)F)c2)C1 (stereo not shown) [Example 65, 1-[[2-(difluoromethoxy)pyridin-4-yl]methyl]-3-(3-methylcyclobutyl)urea]
56	530	C#CC1CC(NC(=O)NCc2ccnc(OC(F)F)c2)C1 (stereo not shown) [Example 66, 1-[[2-(difluoromethoxy)pyridin-4-yl]methyl]-3-(3-ethynylcyclobutyl) urea]
52	1870	O=C(NCc1ccnc(OC(F)F)c1)N[C@H]1C[C@H](F)C1 [Example 67, 1-[[2-(difluoromethoxy)pyridin-4-yl]methyl]-3-((1r,3r)-3-fluorocyclobutyl)urea]
66	2550	O=C(NCc1ccnc(OC(F)F)c1)NC12CCC(C(F)(F)F)(CC1)CC2 [Example 68, 1-[[2-(difluoromethoxy)pyridin-4-yl]methyl]-3-[4-(trifluoromethyl)-1-bicyclo[2.2.2]octanyl]urea]
53	230	O=C(NCc1ccnc(OCC(F)(F)F)c1)NCC1CC(C(F)(F)F)C1 (stereo not shown) [Example 71, 1-[[2-(2,2,2-trifluoroethoxy)pyridin-4-yl]methyl]-3-[[3-(trifluoromethyl)cyclobutyl]methyl]urea]
40	600	O=C(NCc1ccnc(OCC(F)(F)F)c1)NCC12CC(F)(C1)C2 [Example 75, 1-[(3-fluoro-1-bicyclo[1.1.1]pentanyl)methyl]-3-[[2-(2,2,2-trifluoroethoxy)pyridin-4-yl]methyl]urea]
79	20	O=C(NCc1ccnc(OC(F)F)c1)N[C@@H]1CC[C@H]2CCC[C@H]21 [Example 76, 1-[(1R,3aR,6aR)-1,2,3,3a,4,5,6,6a-octahydropentalen-1-yl]-3-[[2-(difluoromethoxy)pyridin-4-yl]methyl]urea]
62	90	O=C(NCc1ccnc(OC(F)F)c1)NC1CC(C2CC2)C1 (stereo not shown) [Example 77, 1-(3-cyclopropylcyclobutyl)-3-[[2-(difluoromethoxy)pyridin-4-yl]methyl]urea]
62	20	O=C(NCc1ccnc(OC(F)F)c1)NC1CC2CCCC2C1 (stereo not shown) [Example 78, 1-(1,2,3,3a,4,5,6,6a-octahydropentalen-2-yl)-3-[[2-(difluoromethoxy)pyridin-4-yl]methyl]urea]
